Reference: US20090012088A1 (priority 2005, published 2009)
Read-outs that look alike come from different tables or passages of the source.

Legend:
[1] = system: MPTP-treated C57 Black mice; experiment: MPTP mouse model of PD, striatal monoamine levels; type: in vivo
Experimental: As a prelude to assessment of PIP-1 in a mouse model of PD, the ability of PIP-1 to penetrate the blood-brain-barrier is first assessed. PIP-1 is injected i.p. at a dose of 50 mg/kg, and mice are sacrificed at 1 and 2 h post injection. After sacrifice, to establish the presence of PIP-1 in the brain the striatum was dissected, sonicated in perchloric acid, and centrifuged. The clarified supernatant is analyzed by HPLC. No endogenous compounds interfere with this assay for PIP-1 as no signal is detected in dissected striata from non-treated mice. As shown by FIG. 21A, the striatal penetrance of PIP-1 is at the level of 70 ng/mg of protein. […] Given this blood-brain-barrier penetrance by PIP-1, the compound is assessed in the MPTP mouse model of PD. Mice are given a one-time i.p. injection of PIP-1 followed 30 minutes later by an injection of MPTP (30 mg/kg). PIP-1 is assessed at concentrations of 0 mg/kg, 1 mg/kg, 5 mg/kg, 10 mg/kg, and 50 mg/kg, and five mice are used in each group. After 30 days, the mice are sacrificed and the striatum dissected and analyzed by HPLC to determine the levels of dopamine and various dopamine metabolites. […]

[2] = system: poly(ADP-ribose) in PC-12 cells; experiment: Intracellular PAR staining in H2O2-treated PC-12 cells (flow cytometry); type: cell-based; conditions: PC-12 cells pre-treated with PIP-1, then H2O2
Experimental: Screening of the 22,000 compounds in this manner produced 38 primary hits (FIG. 15A—“initial hits”). These 38 compounds are assessed for their ability to inhibit PARP-1 and PARG using standard in vitro assays. (12, 29) 20 compounds are PARP-1 inhibitors, and 3 are PARG inhibitors (FIG. 15A). Compounds 1 and 2 inhibit PARG quite well, with IC50 values of ˜0.4-0.5 μM (FIG. 15C). […] Subsequent efforts therefore focused on compound 1, which is named PIP-1 (pyridazinone inhibitor of PARG), and derivatives thereof. […] To determine if PIP-1 could induce the build-up of PAR in cell culture, PC-12 cells were treated with a range of PIP-1 concentrations; H2O2 was then added to induce PARP-1 activity and the cellular PAR levels were quantitated with an anti-PAR antibody and flow cytometry.
Intracellular PAR staining: 1 mL of 10^6 cells/mL PC-12 cells is added to the wells of a 24-well plate. Varying concentrations of PIP-1 or DMSO as a control are added to the cells and incubated for 2 h at 37° C. H2O2 is added to the cells to approximately […]. After a 2 h incubation at 37° C., the cells are thoroughly washed in PBS and fixed overnight in 4° C. ethanol. The cells are again washed in PBS and stained with a 1:50 dilution of anti-poly(ADP-ribose) antibody for 4 h at 4° C. […] After washing with PBS, the fluorescent intensity of each cell is determined by flow cytometry.

[3] = system: neuronally differentiated PC-12 cells; experiment: Protection from MPP+ induced toxicity in neuronally differentiated PC-12 cells; type: cell-based; conditions: 10 μM MPP+, read-out: EC50 (IC50) for protection from MPP+ induced cell death
Experimental: In vivo MPTP is metabolized to its active form, the 1-methyl-4-phenylpyridinium ion (MPP^+), and MPP^+ has proven very useful in a variety of cell culture models of PD. To determine the protective effect of PIP-1 on cells subjected to MPP^+ insult, PC-12 (differentiated as above) and SK-N-SH (differentiated with retinoic acid for 12 days) cells are treated with 10 μM MPP^+ and a range of PIP-1 concentrations, and cell death is assessed by propidium iodide staining and flow cytometry. […] As shown in FIGS. 20A and 20B, PIP-1 also protects differentiated PC-12 and SK-N-SH cells from rotenone-induced toxicity as well.
Cell culture conditions: HL-60 and SK-N-SH cells are grown in RPMI 1640 media supplemented with 10% FBS and PC-12 cells are grown in RPMI 1640 media supplemented with 10% HS and 5% FBS. All cell lines are incubated at 37° C. in a 5% CO2, 95% air atmosphere. HL-60 cells are split every two to three days as needed and SK-N-SH cells are split when they reach approximately 90% confluency at a 1:6 ratio. […]
Protection of Rotenone and MPP^+ induced toxicity in PC-12 and SK-N-SH cells: SK-N-SH and PC-12 cells are neuronally differentiated as described above. […] The cells are then washed in PBS and the viability is determined by adding propidium iodide to 1 μg/mL and measuring the fluorescent intensity of each cell by flow cytometry.

For CN(C)c1cnn(-c2ccccc2)c(=O)c1N [PIP-1, 4-Amino-5-dimethylamino-2-phenyl-2H-pyridazin-3-one], the “Striatal levels of dopamine and dopamine metabolites (DOPAC, HVA) in MPTP-treated mice” value ([1]; 50 mg/kg PIP-1 i.p. 30 min before MPTP 30 mg/kg, after 30 days) was “very similar to the control mice”, the “Effect of PIP-1 by itself on levels of dopamine or dopamine metabolites” value ([1]; mice, without MPTP) was “does not appear to have any adverse effects” and the “Accumulation of intracellular PAR” value [2] was “dose-dependent accumulation of intracellular PAR”. It also gave an EC50 ([3]; 72 h) of 1810 nM and an EC50 ([3]; Rattus norvegicus, PC-12, 72 h) of ~1800 nM.
